Data taken from ChEMBL document CHEMBL4007471, “Assessment of new triplet forming artificial nucleobases as RNA ligands directed towards HCV IRES IIId loop” (Bioorg Med Chem Lett, 2017).

Tests used:
[1] = target: Internal ribosome entry site (IRES); test: Binding affinity to HCV 5'-Alexa488-labeled IRES domain 3 loop RNA at 36 degC after overnight incubation by fluorescence assay; parameters: species or system Hepacivirus hominis
[2] = tested on: Internal ribosome entry site (IRES); test: Binding affinity to HCV 5'-Alexa488-labeled IRES domain 3 loop RNA assessed as change in enthalpy after overnight incubation by fluorescence assay; details: Hepacivirus hominis
[3] = target: Internal ribosome entry site (IRES); test: Binding affinity to HCV 5'-Alexa488-labeled IRES domain 3 loop RNA at 5 degC after overnight incubation by fluorescence assay; parameters: species or system Hepacivirus hominis
[4] = tested on: Internal ribosome entry site (IRES); test: Binding affinity to HCV 5'-Alexa488-labeled IRES domain 3 loop RNA assessed as gibbs free energy change after overnight incubation by fluorescence assay; details: Hepacivirus hominis
[5] = target: Internal ribosome entry site (IRES); test: Binding affinity to HCV 5'-Alexa488-labeled IRES domain 3 loop RNA at 15 degC after overnight incubation by fluorescence assay; parameters: species or system Hepacivirus hominis
[6] = target: Internal ribosome entry site (IRES); test: Binding affinity to HCV 5'-Alexa488-labeled IRES domain 3 loop RNA at 30 degC after overnight incubation by fluorescence assay; parameters: species or system Hepacivirus hominis
[7] = target: Internal ribosome entry site (IRES); test: Binding affinity to HCV 5'-Alexa488-labeled IRES domain 3 loop RNA at 20 degC after overnight incubation by fluorescence assay; parameters: species or system Hepacivirus hominis
[8] = tested on: Internal ribosome entry site (IRES); test: Binding affinity to HCV 5'-Alexa488-labeled IRES domain 3 loop RNA assessed as change in entropy after overnight incubation by fluorescence assay; details: Hepacivirus hominis
[9] = target: Internal ribosome entry site (IRES); test: Binding affinity to HCV 5'-Alexa488-labeled IRES domain 3 loop RNA at 10 degC after overnight incubation by fluorescence assay; parameters: species or system Hepacivirus hominis
[10] = tested on: Internal ribosome entry site (IRES); test: Selectivity ratio of Kd for 5'-Alexa488-labeled IRES domain 3 loop RNA in presence of 50-fold excess of tRNA at 20 degC to Kd for HCV 5'-Alexa488-labeled IRES domain 3 loop RNA at 20 degC; details: Hepacivirus hominis
[11] = tested on: Internal ribosome entry site (IRES); test: Selectivity ratio of Kd for HCV IRES 5'Alexa488-GCCGAGGAGUGUUGGGUCGCGCAAGGC-3' RNA at 20 degC to Kd for HCV 5'-Alexa488-labeled IRES domain 3 loop RNA at 20 degC; details: Hepacivirus hominis
[12] = target: Internal ribosome entry site (IRES); test: Binding affinity to HCV 5'-Alexa488-labeled IRES domain 3 loop RNA at 20 degC after overnight incubation in presence of 50-fold excess of tRNA by fluorescence assay; parameters: species or system Hepacivirus hominis
[13] = target: Internal ribosome entry site (IRES); test: Binding affinity to HCV IRES 5'Alexa488-GCCGAGGAGUGUUGGGUCGCGCAAGGC-3' RNA at 20 degC after overnight incubation by fluorescence assay; parameters: species or system Hepacivirus hominis
[14] = tested on: Internal ribosome entry site (IRES); test: Potency index, ratio of neomycin Kd to compound Kd for HCV 5'-Alexa488-labeled IRES domain 3 loop RNA at 20 degC; details: Hepacivirus hominis

Structure (SMILES) | Kd ([1]; read-out: Kd) [µM] | deltaH [2] [kcal/mol] | Kd ([3]; read-out: Kd) [µM] | deltaG [4] [kcal/mol] | Kd ([5]; read-out: Kd) [µM] | Kd ([6]; read-out: Kd) [µM] | Kd ([7]; read-out: Kd) [µM] | TdeltaS [8] [kcal/mol] | Kd ([9]; read-out: Kd) [µM] | Kd [7] | Kd [1] | Kd [6] | further results
CC(=O)Nc1nccc(-c2cccc(NC(=O)CCCCCNC(=O)[C@@H](N)CN)c2)n1 | 42.6 | -8.08 | 9.4 | -6.33 | 14.2 | 27.7 | 16.8 | -1.74 | 11.6 | – | – | – | –
NCCCC[C@H](N)C(=O)O [LYSINE] | – | – | – | – | – | – | – | – | – | Not Active | – | – | –
CC(=O)Nc1nccc(-c2cccc(NC(=O)[C@@H](N)CCCCN)c2)n1 | 8.6 | -6.14 | 3.2 | -7.17 | 3.8 | 6.2 | 4.3 | 1.03 | 3.4 | – | – | – | Selectivity ratio [10]: 2.4; Selectivity ratio [11]: > 100; Kd [12]: 10.5 µM; Kd ([13]; read-out: Kd): 554 µM; Ratio [14]: 2
CC(=O)Nc1nccc(-c2cccc(NC(=O)[C@@H](N)Cc3c[nH]cn3)c2)n1 | 262 | -11.6 | 8.6 | -6.19 | 15 | 50.8 | 19.7 | -5.4 | 11.8 | – | – | – | –
CC(=O)Nc1nccc(-c2cccc(N)c2)n1 | – | – | – | – | – | – | – | – | – | Not Active | – | – | –
CC(=O)Nc1nccc(-c2cccc(NC(=O)CN)c2)n1 | – | – | 177 | – | 438 | – | 863 | – | 284 | – | Not Active | Not Active | –
CC(=O)Nc1nccc(-c2cccc(NC(=O)c3cccnc3)c2)n1 | – | – | 137 | – | 360 | – | 659 | – | 290 | – | Not Active | Not Active | –
NCCCCCC(=O)NCC(=O)Nc1nc2ccccc2[nH]1 | – | – | – | – | – | – | – | – | – | Not Active | Not Active | Not Active | Kd [3]: Not Active; Kd [5]: Not Active; Kd ([13]; read-out: Kd): 41.4 µM; Kd [9]: Not Active
NCCCC(=O)NCC(=O)Nc1nc2ccccc2[nH]1 | – | – | – | – | – | – | – | – | – | Not Active | Not Active | Not Active | Kd [3]: Not Active; Kd [5]: Not Active; Kd [9]: Not Active
NCC(=O)NCC(=O)Nc1nc2ccccc2[nH]1 | – | – | – | – | – | – | – | – | – | Not Active | Not Active | Not Active | Kd [3]: Not Active; Kd [5]: Not Active; Kd [9]: Not Active
CC(=O)Nc1nccc(-c2cccc(NC(=O)CCCN(C)C)c2)n1 | 32.5 | -1.91 | 29.5 | -6.02 | 34.8 | 38.4 | 36.9 | 4.11 | 31.5 | – | – | – | –
NCC1O[C@H](O[C@H]2[C@@H](O)[C@H](O[C@H]3[C@H](O)[C@@H](N)C[C@@H](N)[C@@H]3O[C@H]3O[C@H](CN)[C@@H](O)[C@H](O)[C@H]3N)O[C@@H]2CO)[C@H](N)[C@@H](O)[C@@H]1O (stereo partly specified) | 24.1 | -9.51 | 5.7 | -6.72 | 6.5 | 15.6 | 8.5 | -2.8 | 6.1 | – | – | – | –
CC(=O)Nc1nccc(-c2cccc(NC(=O)CCCN)c2)n1 | – | – | 102 | – | 159 | – | 220 | – | 122 | – | Not Active | Not Active | –
CC(=O)Nc1nccc(-c2cccc(NC(=O)c3nccnc3N)c2)n1 | – | – | 81.5 | – | 158 | – | 232 | – | 138 | – | Not Active | Not Active | –
CC(=O)Nc1nccc(-c2cccc(NC(=O)[C@@H](N)CN)c2)n1 | 30.1 | -9.63 | 5.1 | -6.64 | 7.6 | 18.4 | 10.1 | -2.99 | 6.5 | – | – | – | –
CC(=O)Nc1nccc(-c2cccc(NC(=O)CCCCCN)c2)n1 | 11.4 | -0.741 | 10.8 | -6.62 | 11.4 | 12 | 11.8 | 5.88 | 11.1 | – | – | – | Selectivity ratio [10]: 1.4; Kd [12]: 17.1 µM; Kd [13]: Not Active
